In publication PMC9885069 (Scientific Reports, 2023):
Entries after “also recorded” stand apart in the source; their conditions may differ. Read-outs that look alike come from different tables or passages of the source.

Columns and labels:
01SD NPC cultures = experiment: Cytotoxicity in uninfected NPC cultures, flow cytometry with fixable viability dye; conditions: uninfected 01SD NPCs; for cell viability of treated cultures: concentrations up to 50 μM
HSV-1 [1] = type: cell-based; conditions: 10 μM; for reduction of the percentage of EGFP+-RFP+ cells compared to infected cells exposed to vehicle: MOI 0.1, day 3 p.i.; for anti-HSV-1 activity in NPCs: 01SD and 9001 NPCs, day 3 p.i.
[2] = test system: eIF2α phosphorylation on serine 51; experiment: Immunocytochemistry of eIF2α phosphorylated on serine 51 in NPCs; type: cell-based, human; conditions: 9001 NPCs, 10 μM, 24 h, compared to untreated or 7-treated NPCs
Description: The RNA sequencing data is thus fully consistent with the hypothesis that 2b and 8 trigger a host antiviral response by activating an ISR.
Figure 8 Activation of the integrated stress response in 2b- and 8-treated NPCs. (A) NPCs derived from 9001 iPSC lines were exposed to compounds 7, 8, and 2b (10 μM). After 24 h, cells were fixed and stained with an antibody that detects eIF2α phosphorylated on Serine 51 (EIF2S1). Nuclei were counterstained with Hoechst 33342, and phosphorylation was assessed by fluorescence microscopy. (B) The corrected total cell fluorescence (CTCF) was obtained by measuring EIF2S1 fluorescence in cells where a fluorescent signal could be detected and normalizing for cellular area using equation CTCF = integrated density − (cellular area × mean fluorescence of background readings). Error bars are standard deviations. One-way analysis of variance (ANOVA) followed by Bonferroni post-hoc test was used to compare CTCF among the different conditions: ** (P = 0.0042); **** (P < 0.0001). (C,D) Up-regulation of the EIF2A kinase EIF2AK3 (C) and the activated transcription factor 4 (ATF4) (D) in 2b- and 8-treated NPCs. Fold-changes were calculated from RNA-seq data described in the methods section. (E) Proposed mechanism of action of 2b and 8.

HSV-1 [3] = conditions: cited from earlier work
[4] = test system: fibroblasts, hepatocytes, iPSC-derived neural progenitor cells; design: method as in PMID 30413769; conditions: cited from earlier work
[5] = test system: host cell gene expression in 02SF NPCs; experiment: RNA sequencing and Ingenuity Pathway Analysis of uninfected NPCs; type: cell-based, human; conditions: 10 μM
[6] = Toxicity (cell number) in Calu3 cells in the SARS-CoV-2 assay; type: cell-based; conditions: human, Calu3 (ATCC, HTB-55) cells infected with SARS-CoV-2, 48 h post-infection
[7] = test system: SARS-CoV-2 (isolate USA WA1/2020); experiment: NIH-NIAID in vitro SARS-CoV2 viral replication assay in Calu3 cells; type: cell-based; conditions: for therapeutic selectivity: CC50/IC50 in Calu3 cells
HSV-1 [8] = experiment: microbe, parasite or virus in culture; type: cell-based; conditions: for inhibition of HSV-1 infection (EGFP and RFP reporter expression) in brain organoids: 9001 and 01SD fourteen-week old organoids, 6000 pfu/organoid, compounds 10 μM, ACV 50 μM, day 3 p.i.
[9] = cited from earlier work
human brain organoids = experiment: Organoid viability, calcein AM assay; type: cell-based; design: organoid viability: dose or concentration left out as unconfirmed
Description: Sixteen-week old brain organoids were infected as described above and exposed after 2 h to increasing 8 concentration ranging from 0.01 to 50 μM. At day 3 p.i. the IC50 of 8 was determined by measuring the intensity of the fluorescent reporter gene EGFP (whose expression is under the control of promoter of the immediate early HSV-1 gene ICP0) in the infected organoids was investigated. The EGFP expression was used as a proxy for viral gene expression during early stages of HSV-1 acute infection.
Figure 6 Antiviral efficacy and cytotoxicity of 8 against HSV-1 in human brain organoids. […] The IC50 was estimated by determining the corrected total cell fluorescence (CTCF) obtained by measuring EGFP fluorescence in organoids using ImageJ and normalizing for background using equation CTCF = integrated density − (area of the organoid × mean fluorescence of background readings). (B) Cytotoxicity of 8 without HSV-1 infection was assessed using calcein-AM. The fluorescence of calcein-AM in each organoid was measured and CTCF was determined as described above. […] 9001 and 01SD are printed as plot headings and were read as the test systems (organoid lines), not as substances. […]
Organoids viability was analyzed using calcein AM assay (BioLegend; catalogue # 425201), according to manufacturer’s instructions. […]

HSV-1 strain 17syn+ = experiment: Mouse ocular model of HSV-1 infection, plaque assay of eye swabs; type: in vivo, ND4 Swiss mice
Description: The antiviral efficacy of compound 8 was further investigated and confirmed in an in vivo mouse model. ND4 Swiss mice were infected in the eyes with HSV-1 following light corneal scarification as described in the Materials and Methods section. At the same time that the virus was applied, one group of mice (n = 10) were treated a 50uM solution of compound 8 in DMSO and the other group (n = 10) were treated DMSO (vehicle). The eyes were treated with either vehicle or compound 8 each day for 4 days. The eyes were swabbed daily and infectious virus shedding was assessed by standard plaque assay.
Figure 9 In vivo antiviral activity. ND4 swiss mice were infected by corneal scarification with 1 × 10^5 pfu of HSV-1 strain 17syn+. Eyes were swabbed daily for 4 days and assayed for infectious virus by standard plaque assay.
ND4 Swiss mice, 4–6 weeks of age, (Envigo labs) were infected by the ocular route. Mice were anesthetized with isoflurane and the cornea were lightly scarified with a 23 ga. needle. 1 × 10^5 pfu (in 5 µl) of HSV-1 strain 17syn+ was applied to the corneal surface. At the same time, one group of mice (n = 10) were treated with 2 µL of a 50 µM solution of compound 8 in DMSO and the other group (n = 10) were treated with 2 µL DMSO (vehicle), applied to the eyes. The eyes were treated with either vehicle or compound 8 each day for 4 days. In order to assess the effect of compound 8 on the course of the infection, the eyes were swabbed daily with a Dacron swab, and the virus eluted in MEM medium. The swab eluate was assessed for the presence of infectious virus by standard plaque assay on rabbit skin cell monolayers.

## Nc1nc2c(ncn2COCCO)c(=O)[nH]1 [ACV, acyclovir]
01SD NPC cultures
  cell viability of treated cultures: comparable

## O=C1N[C@H]2[C@H](O)[C@H](O)[C@@H](O)C[C@@H]2c2cc3c(cc21)OCO3 [Compound 2b, trans-dihydrolycoricidine, reference compound]
HSV-1 [1]; 01SD NPCs
  reduction of the percentage of EGFP+-RFP+ cells compared to infected cells exposed to vehicle: 8016 fold
HSV-1 [1]; 9001 NPCs
  reduction of the percentage of EGFP+-RFP+ cells compared to infected cells exposed to vehicle: 424 fold
[2]
  eIF2α ~ P immunoreactivity: increased
HSV-1 [3]; compared with acyclovir (ACV)
  inhibition of HSV-1 replication: more efficaciously than acyclovir
HSV-1 [3]; ex vivo mouse model
  HSV-1 reactivation from latency: prevents HSV-1 reactivation from latency
HSV-1 [3]; tk- strain and PAAv strain
  potency against HSV-1 strains resistant to ACV: moderate potency
[4]; fibroblasts and hepatocytes
  toxicity in comparison to acyclovir: Slightly higher toxicity
[4]; iPSC-derived neural progenitor cells (NPCs)
  toxicity in comparison to acyclovir: lower toxicity
[5]
  expression of activated transcription factor 4 (ATF4) (RNA-seq): Up-regulation
  expression of the EIF2A kinase EIF2AK3 (RNA-seq): Up-regulation
01SD NPC cultures
  concentration from which a reduction in cell viability was observed: ≥ 25 µM
[6]
  CC50 at 48 h: 3480 nM
[7]
  therapeutic selectivity: 19
HSV-1 [8]
  inhibition of HSV-1 infection (EGFP and RFP reporter expression) in brain organoids: no expression of EGFP and RFP reporter genes

## O=C1N[C@H]2[C@H](O)[C@H](O)[C@@H](O)CN2c2cc3c(cc21)OCO3 [Compound 4]
[9]
  antiviral activity: totally devoid of antiviral activity

## COc1ccc2c(c1)[C@H]1C[C@H](O)[C@@H](O)[C@@H](O)[C@@H]1NC2=O [Compound 5, (2S,3R,4S,4aR,10bR)-2,3,4-Trihydroxy-9-methoxy-1,3,4,4a,5,10b-hexahydrophenanthridin-6(2H)-one]
HSV-1 [1]
  anti-HSV-1 activity in NPCs: no anti-HSV-1 activity

## O=C1N[C@H]2[C@H](O)[C@H](O)[C@@H](O)C[C@@H]2c2cc(O)ccc21 [Compound 6, (2S,3R,4S,4aR,10bR)-2,3,4,9-Tetrahydroxy-1,3,4,4a,5,10b-hexahydrophenanthridin-6(2H)-one]
HSV-1 [1]
  anti-HSV-1 activity in NPCs: no anti-HSV-1 activity
HSV-1 [8]
  inhibition of HSV-1 infection (EGFP and RFP reporter expression) in brain organoids: no anti-HSV-1 activity

## COc1cccc2c1C(=O)N[C@H]1[C@H](O)[C@H](O)[C@@H](O)C[C@H]21 [Compound 7, (2S,3R,4S,4aR,10bR)-2,3,4-Trihydroxy-7-methoxy-1,3,4,4a,5,10b-hexahydrophenanthridin-6(2H)-one]
HSV-1 [1]
  anti-HSV-1 activity in NPCs: no anti-HSV-1 activity
HSV-1 [8]
  inhibition of HSV-1 infection (EGFP and RFP reporter expression) in brain organoids: no anti-HSV-1 activity

## O=C1N[C@H]2[C@H](O)[C@H](O)[C@@H](O)C[C@@H]2c2cccc(O)c21 [Compound 8, (2S,3R,4S,4aR,10bR)-2,3,4,7-Tetrahydroxy-1,3,4,4a,5,10b-hexahydrophenanthridin-6(2H)-one]
HSV-1 [1]; 01SD NPCs
  reduction of the percentage of EGFP+-RFP+ cells compared to infected cells exposed to vehicle: 6.76 fold
HSV-1 [1]; 9001 NPCs
  reduction of the percentage of EGFP+-RFP+ cells compared to infected cells exposed to vehicle: 4.65 fold
[2]
  eIF2α ~ P immunoreactivity: increased
Human brain organoids
  organoid viability: No significant reduction
Human brain organoids; without HSV-1 infection, concentrations up to 50 μM
  organoid viability (calcein AM): No significant reduction; also recorded: No significant differences in cell viability
[5]
  expression of activated transcription factor 4 (ATF4) (RNA-seq): Up-regulation
  expression of the EIF2A kinase EIF2AK3 (RNA-seq): Up-regulation
01SD NPC cultures
  cell viability of treated cultures: comparable
HSV-1 strain 17syn+; mouse eyes, 50 µM solution in DMSO, daily for 4 days
  yield of infectious virus in the tears (HSV-1 shedding) compared to vehicle treated eyes: dramatically reduced; also recorded: dramatically reduces HSV-1 shedding
HSV-1 strain 17syn+; mouse eyes, 50 µM solution in DMSO, daily for 4 days, vs vehicle
  reduction of peak titer of infectious virus: reduced almost threefold
HSV-1 strain 17syn+; mouse eyes, 50 µM solution in DMSO, daily for 4 days, listed as 7-hydroxyl derivative
  yield of infectious virus in the tears (HSV-1 shedding) compared to vehicle treated eyes: dramatically reduced HSV-1 shedding
HSV-1 strain 17syn+; vehicle peak at day 2 post-infection
  delay of peak titer of infectious virus: delayed by one day
[6]
  CC50 at 48 h: 1920 nM
[7]
  therapeutic selectivity: 20
HSV-1 [8]
  inhibition of HSV-1 infection (EGFP and RFP reporter expression) in brain organoids: no expression of EGFP and RFP reporter genes
HSV-1 [8]; Human alphaherpesvirus 1, 72 h, read-out: IC50 of HSV-1 infection (EGFP intensity), 01SD organoids, sixteen-week old, day 3 p.i.
  IC50: 209 nM
HSV-1 [8]; Human alphaherpesvirus 1, 72 h, read-out: IC50 of HSV-1 infection (EGFP intensity), 9001 organoids, sixteen-week old, day 3 p.i.
  IC50: 504 nM
HSV-1 [8]; Human alphaherpesvirus 1, read-out: IC50 (EGFP CTCF), printed in Figure 6A, 01SD organoids
  IC50: 209 nM
HSV-1 [8]; Human alphaherpesvirus 1, read-out: IC50 (EGFP CTCF), printed in Figure 6A, 9001 organoids
  IC50: 504 nM

## CCC(CC)COC(=O)[C@H](C)N[P@](=O)(OC[C@H]1O[C@@](C#N)(c2ccc3c(N)ncnn23)[C@H](O)[C@@H]1O)Oc1ccccc1 [remdesivir]
[7]; Severe acute respiratory syndrome coronavirus 2, Calu-3, Calu3 cells, MOI=0.5, 2 h pretreatment, 48 h post-infection, read-out: IC50 (infection, dsRNA+ cells/total cell number)
  IC50: 60 nM
